Measured values from US8129355B2, “Ketone ligands for modulating the expression of exogenous genes via an ecdysone receptor complex” (priority 2002, dated 2012).
Read-outs that look alike come from different tables or passages of the source.

Molecular target: T1, Bombyx mori EcR (VP16 fusion, switch construct CVBE) with 6XEcRE LacZ reporter (Bombyx mori, UniProt P49881)
T1 construct: expressed in transfected cells; host or cells: Human 293 kidney (HEK-293) cells, retrovirally infected, clone Z3
T1 sequence (P49881 86-606 limits assumed): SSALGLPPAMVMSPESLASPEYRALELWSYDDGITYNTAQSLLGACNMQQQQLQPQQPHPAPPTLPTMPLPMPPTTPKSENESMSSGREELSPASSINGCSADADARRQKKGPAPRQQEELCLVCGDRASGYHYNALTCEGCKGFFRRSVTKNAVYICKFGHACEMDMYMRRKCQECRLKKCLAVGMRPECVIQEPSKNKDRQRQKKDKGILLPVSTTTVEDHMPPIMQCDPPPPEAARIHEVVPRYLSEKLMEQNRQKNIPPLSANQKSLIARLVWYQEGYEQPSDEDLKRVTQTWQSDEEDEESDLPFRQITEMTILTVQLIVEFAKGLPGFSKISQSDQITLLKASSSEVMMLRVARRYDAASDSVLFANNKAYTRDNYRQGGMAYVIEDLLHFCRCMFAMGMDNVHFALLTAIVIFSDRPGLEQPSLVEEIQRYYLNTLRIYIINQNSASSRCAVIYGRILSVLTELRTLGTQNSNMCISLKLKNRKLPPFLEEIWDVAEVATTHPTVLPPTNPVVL
T1 sequence (P19793 1-462 partner): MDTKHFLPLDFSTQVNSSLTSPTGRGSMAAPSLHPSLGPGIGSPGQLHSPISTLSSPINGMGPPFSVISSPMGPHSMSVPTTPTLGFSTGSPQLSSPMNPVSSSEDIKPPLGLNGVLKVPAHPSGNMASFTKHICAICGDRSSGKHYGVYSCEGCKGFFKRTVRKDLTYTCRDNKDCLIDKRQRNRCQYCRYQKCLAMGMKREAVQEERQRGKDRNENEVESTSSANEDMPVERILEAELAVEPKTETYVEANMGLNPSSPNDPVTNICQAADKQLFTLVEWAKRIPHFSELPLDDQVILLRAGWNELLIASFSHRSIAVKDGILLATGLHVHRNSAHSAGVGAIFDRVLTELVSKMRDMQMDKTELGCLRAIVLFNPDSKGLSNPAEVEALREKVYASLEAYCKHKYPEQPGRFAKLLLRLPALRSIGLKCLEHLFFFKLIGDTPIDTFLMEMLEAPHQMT
Assay: Z3 assay: β-galactosidase (LacZ) reporter gene fold induction in stably transformed human 293 kidney cells (clone Z3)
Type: cell-based
Outline: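 β-Galactosidase read 48 h after dosing by bioluminescent assay; ligand added at 33 μM with DMSO held at 0.03%. The cells are stable 293 clone Z3, expressing a CMV-driven VP16 fusion of Bombyx mori EcR residues 26-546 plus six EcRE copies upstream of lacZ.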

[1] = average; dose response, three-parameter logistic model; read-out: Z3 LC50
[2] = maximum fold induction at any concentration relative to that of GS-E ligand
[3] = read-out: Fold Induction Average, Z3 Assay (33 μM)
[4] = read-out: Z3 LC50; average; dose response, three-parameter logistic model
[5] = single dose 33 μM; ligand treated / DMSO treated cells; read-out: Fold Induction Average, Z3 Assay (33 μM)

With COC(=O)CN1CCCC(NC(=O)c2cccc(OC)c2C)(C(=O)c2cc(C)cc(C)c2)C1 (racemic) [Example 156] the CC50 [1] was roughly 20 µM, the “Z3 Rel Max FI” value [2] was 0.03 and the “Fold Induction Average, Z3 Assay (33 μM)” value (single dose 33 μM; ligand treated / DMSO treated cells) was 78.
For COc1cccc(C(=O)C2(NC(=O)c3cccc(OC)c3C)CCCCC2)c1 [Example 4], the “Z3 Rel Max FI” value [2] was 0.54, the fold induction at 33 µM [3] was 233 and the CC50 [4] was 1.19 µM.
COc1cccc(C(=O)NC2(C(=O)c3cccc(C)c3)CCCCC2)c1C [Example 7] was tested, and the “Z3 Rel Max FI” value [2] was 0.78, the fold induction at 33 µM [3] was 811 and the CC50 [4] was 3.51 µM.
With COc1cccc(C(=O)NC2(C(=O)c3cc(C)cc(C)c3)CCCC2)c1C [Example 10] the CC50 [1] was 1.87 µM, the “Z3 Rel Max FI” value [2] was 0.85 and the fold induction at 33 µM [5] was 464.
COc1cccc(C(=O)NC2(C(=O)c3cc(C)cc(C)c3)CCCCC2)c1C [Example 11] was tested, and the CC50 [1] was 1.41 µM, the “Z3 Rel Max FI” value [2] was 0.99 and the fold induction at 33 µM [5] was 722.
COc1cccc(C(=O)NC(C)(Cc2ccccc2)C(=O)c2cc(C)cc(C)c2)c1C (stereo not drawn) [Example 12] was tested, and the “Z3 Rel Max FI” value [2] was 0.09, the fold induction at 33 µM [3] was 76 and the CC50 [4] was 10 µM.
For COc1cccc(C(=O)NC2(C(=O)c3cc(C)cc(C)c3)CC2)c1C [Example 13], the “Z3 Rel Max FI” value [2] was 0.22, the fold induction at 33 µM [3] was 293 and the CC50 [4] was 20.4 µM.
With COc1cccc(C(=O)NC2(C(=O)c3cc(C)cc(C)c3)CCC2)c1C [Example 14] the CC50 [1] was 8.52 µM, the “Z3 Rel Max FI” value [2] was 0.69 and the fold induction at 33 µM [5] was 945.
In the case of COc1cccc(C(=O)NC2(C(=O)c3ccc(C)cc3)CCCCC2)c1C [Example 15], the “Z3 Rel Max FI” value [2] is reported as 0.70, the fold induction at 33 µM [3] is reported as 921 and the CC50 [4] is reported as 3.01 µM.
For COc1cccc(C(=O)NC2(C(=O)c3ccc(F)c(C)c3)CCCC2)c1C [Example 17], the “Z3 Rel Max FI” value [2] was 0.43, the fold induction at 33 µM [3] was 393 and the CC50 [4] was 3.47 µM.
In the case of COc1cccc(C(=O)NC2(C(=O)c3ccc(F)c(C)c3)CCCCC2)c1C [Example 18], the “Z3 Rel Max FI” value [2] is reported as 0.67, the fold induction at 33 µM [3] is reported as 657 and the CC50 [4] is reported as 3.41 µM.
COc1cccc(C(=O)NC(C)(C(=O)c2cc(C)cc(C)c2)C(C)C)c1C (stereo not drawn) [Example 20] was tested, and the “Z3 Rel Max FI” value [2] was 0.75, the fold induction at 33 µM [3] was 573 and the CC50 [4] was 2.06 µM.
CCc1c(OC)cccc1C(=O)NC1(C(=O)c2ccccc2)CCCC1 [Example 21] was tested, and the “Z3 Rel Max FI” value [2] was 0.33, the fold induction at 33 µM [3] was 305 and the CC50 [4] was roughly 15 µM.
In the case of CCc1c(C(=O)NC2(C(=O)c3ccccc3)CCCC2)ccc2c1OCCO2 [Example 22], the “Z3 Rel Max FI” value [2] is reported as 0.48, the fold induction at 33 µM [3] is reported as 602 and the CC50 [4] is reported as roughly 10 µM.
With COc1cccc(C(=O)NC2(C(=O)c3cccc(C)c3)CCOCC2)c1C [Example 25] the “Z3 Rel Max FI” value [2] was 0.07, the fold induction at 33 µM [3] was 19 and the CC50 [4] was roughly 20 µM.
In the case of COc1cccc(C(=O)NC2(C(=O)c3cccc(C)c3)CCSCC2)c1C [Example 26], the “Z3 Rel Max FI” value [2] is reported as 0.60, the fold induction at 33 µM [3] is reported as 751 and the CC50 [4] is reported as roughly 15 µM.
COc1cccc(C(=O)NC2(C(=O)c3cc(C)cc(C)c3)CCOCC2)c1C [Example 27] was tested, and the “Z3 Rel Max FI” value [2] was 0.81, the fold induction at 33 µM [3] was 562 and the CC50 [4] was 10 µM.
COc1cccc(C(=O)NC2(C(=O)c3cc(C)cc(C)c3)CCSCC2)c1C [Example 28] was tested, and the CC50 [1] was 1.6 µM, the “Z3 Rel Max FI” value [2] was 0.98 and the fold induction at 33 µM [5] was 1220.
COc1cccc(C(=O)NC2(C(=O)c3cc(C)cc(C)c3)CCC3(CC2)OCCO3)c1C [Example 29] was tested, and the “Z3 Rel Max FI” value [2] was 0.06, the fold induction at 33 µM [3] was 116 and the CC50 [4] was roughly 15 µM.
For COc1ccccc1C(=O)C(C)(NC(=O)c1cccc(OC)c1C)C(C)C (stereo not drawn) [Example 30], the “Z3 Rel Max FI” value [2] was 0.20, the fold induction at 33 µM [3] was 485 and the CC50 [4] was roughly 15 µM.
COc1cccc(C(=O)NC(C)(C(=O)c2cccc(C)c2)C(C)C)c1C (stereo not drawn) [Example 31] was tested, and the CC50 [1] was 8.61 µM, the “Z3 Rel Max FI” value [2] was 0.47 and the fold induction at 33 µM [5] was 312.
With COc1cccc(C(=O)C(C)(NC(=O)c2cccc(OC)c2C)C(C)C)c1 (stereo not drawn) [Example 32] the “Z3 Rel Max FI” value [2] was 0.12, the fold induction at 33 µM [3] was 33 and the CC50 [4] was 25.5 µM.
For COc1cccc(C(=O)NC(C)(C(=O)c2ccc(C)cc2)C(C)C)c1C (stereo not drawn) [Example 33], the CC50 [1] was roughly 20 µM, the “Z3 Rel Max FI” value [2] was 0.05 and the fold induction at 33 µM [5] was 31.
For COc1cccc(C(=O)NC(C)(C(=O)c2ccccc2)C(C)C)c1C (stereo not drawn) [Example 34], the “Z3 Rel Max FI” value [2] was 0.04, the fold induction at 33 µM [3] was 66 and the CC50 [4] was greater than 33 µM.
With CCC(CC)(NC(=O)c1cccc(OC)c1C)C(=O)c1ccccc1OC [Example 37] the “Z3 Rel Max FI” value [2] was 0.29, the fold induction at 33 µM [3] was 327 and the CC50 [4] was 6.19 µM.
CCC(CC)(NC(=O)c1cccc(OC)c1C)C(=O)c1ccc(F)cc1 [Example 38] was tested, and the CC50 [1] was 13.7 µM, the “Z3 Rel Max FI” value [2] was 0.04 and the fold induction at 33 µM [5] was 51.
For COc1ccccc1C(=O)C1(NC(=O)c2cccc(OC)c2C)CCCC1 [Example 40], the “Z3 Rel Max FI” value [2] was 0.70, the fold induction at 33 µM [3] was 951 and the CC50 [4] was 5.16 µM.
With COc1cccc(C(=O)NC2(C(=O)c3ccc(F)cc3)CCCC2)c1C [Example 42] the “Z3 Rel Max FI” value [2] was 0.14, the fold induction at 33 µM [3] was 153 and the CC50 [4] was roughly 15 µM.
COc1cccc(C(=O)NC2(C(=O)c3ccccc3C)CCCCC2)c1C [Example 44] was tested, and the “Z3 Rel Max FI” value [2] was 0.23, the fold induction at 33 µM [3] was 94 and the CC50 [4] was 16.8 µM.
With COc1ccccc1C(=O)C1(NC(=O)c2cccc(OC)c2C)CCCCC1 [Example 45] the “Z3 Rel Max FI” value [2] was 0.84, the fold induction at 33 µM [3] was 665 and the CC50 [4] was 0.98 µM.
With COc1ccc(C(=O)C2(NC(=O)c3cccc(OC)c3C)CCCCC2)cc1 [Example 46] the “Z3 Rel Max FI” value [2] was 0.03, the fold induction at 33 µM [3] was 15 and the CC50 [4] was greater than 33 µM.
CCC(CC)(NC(=O)c1cccc(OC)c1C)C(=O)c1cccc(C)c1 [Example 48] was tested, and the CC50 [1] was 6.61 µM, the “Z3 Rel Max FI” value [2] was 0.25 and the fold induction at 33 µM [5] was 356.
For CCC(CC)(NC(=O)c1cccc(OC)c1C)C(=O)c1cccc(OC)c1 [Example 49], the “Z3 Rel Max FI” value [2] was 0.01, the fold induction at 33 µM [3] was 182 and the CC50 [4] was greater than 33 µM.
In the case of CCC(CC)(NC(=O)c1cccc(OC)c1C)C(=O)c1ccc(F)c(C)c1 [Example 50], the “Z3 Rel Max FI” value [2] is reported as 0.07, the fold induction at 33 µM [3] is reported as 178 and the CC50 [4] is reported as 10.4 µM.
In the case of CCC(CC)(NC(=O)c1cccc(OC)c1C)C(=O)c1cc(C)cc(C)c1 [Example 51], the CC50 [1] is reported as 4.53 µM, the “Z3 Rel Max FI” value [2] is reported as 0.61 and the fold induction at 33 µM [5] is reported as 817.
For COc1cccc(C(=O)NC(C)(CC(C)C)C(=O)c2cccc(C)c2)c1C (stereo not drawn) [Example 52], the “Z3 Rel Max FI” value [2] was 0.24, the fold induction at 33 µM [3] was 239 and the CC50 [4] was 6.09 µM.
In the case of COc1cccc(C(=O)C(C)(CC(C)C)NC(=O)c2cccc(OC)c2C)c1 (stereo not drawn) [Example 53], the “Z3 Rel Max FI” value [2] is reported as 0.11, the fold induction at 33 µM [3] is reported as 112 and the CC50 [4] is reported as 23.7 µM.
COc1cccc(C(=O)NC(C)(CC(C)C)C(=O)c2cc(C)cc(C)c2)c1C (stereo not drawn) [Example 55] was tested, and the “Z3 Rel Max FI” value [2] was 0.72, the fold induction at 33 µM [3] was 309 and the CC50 [4] was 3.4 µM.
For COc1cccc(C(=O)NC2(C(=O)c3ccc(F)cc3)CCCCC2)c1C [Example 60], the “Z3 Rel Max FI” value [2] was 0.61, the fold induction at 33 µM [3] was 817 and the CC50 [4] was roughly 6 µM.
For COc1cccc(C(=O)NC2(C(=O)c3cc(C)cc(C)c3)CCS(=O)(=O)CC2)c1C [Example 62], the “Z3 Rel Max FI” value [2] was 0.10, the fold induction at 33 µM [3] was 347 and the CC50 [4] was roughly 15 µM.
In the case of COc1cccc(C(=O)NC(C)(C(=O)c2ccccc2C)C(C)C)c1C (stereo not drawn) [Example 63], the CC50 [1] is reported as 17.9 µM, the “Z3 Rel Max FI” value [2] is reported as 0.26 and the fold induction at 33 µM [5] is reported as 453.
